Legend:
[1] = target: T1, KRas G12D fused to HiBiT peptide (Homo sapiens, UniProt P01116, G12D); assay: ASPC-1 HiBit assay to determine G12D degradation; format: cell-based; conditions: AsPC-1 HiBiT cells, 24-hour incubation; read-out: ASPC-1 HiBit DC50 (C)
T1 construct: endogenous in cells; host or cells: AsPC-1 HiBiT knock-in single clone (Cas9 RNP + ssODN)
Method in brief: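 Homozygous AsPC-1 clone with N-terminal HiBiT knock-in on endogenous KRas G12D, 24 h compound exposure, top dose 10 μM, 3-fold, 10 points, 1% DMSO. Lytic HiBiT luminescence normalised to DMSO and inhibitor controls gives % degradation; DC50 from 4-parameter fit after hook-effect points removed.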

[2] = target: T2, KRAS (WT) (Homo sapiens, UniProt P01116); assay: In-vitro RAS-RAF binding assay (RRB), HTRF/FRET; format: biochemical; conditions: Table 2, average of multiple runs of each compound; read-out: Inhibition of RAS-RAF Binding (in-vitro) KRAS (WT) IC50
T2 construct: Biotinylated KRAS protein amino acids 1-169 (produced at Erasca); made in house
Method in brief: (§1)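 Compounds preincubated with terbium-labelled biotinylated KRAS (aa 1-169, 30 nM) before 60 min SOS1-catalysed exchange to GTPgS. Binding of the d2-labelled cRAF RBD (30 nM) is read as FRET at equilibrium in duplicate. Buffer: 50 mM HEPES pH 7.5, 100 mM NaCl, 1 mM MgCl2, 1 mM DTT.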

[3] = target: KRAS G12D (Homo sapiens, UniProt P01116, G12D); assay: In-vitro RAS-RAF binding assay (RRB), HTRF/FRET; format: biochemical; set-up: Biotinylated KRAS protein amino acids 1-169 (produced at Erasca); made in house; conditions: Table 2, average of multiple runs of each compound; read-out: Inhibition of RAS-RAF Binding (in-vitro) KRAS (G12D) IC50
Method in brief: as §1

T2 sequence (P01116 1-169 isoform P01116-2): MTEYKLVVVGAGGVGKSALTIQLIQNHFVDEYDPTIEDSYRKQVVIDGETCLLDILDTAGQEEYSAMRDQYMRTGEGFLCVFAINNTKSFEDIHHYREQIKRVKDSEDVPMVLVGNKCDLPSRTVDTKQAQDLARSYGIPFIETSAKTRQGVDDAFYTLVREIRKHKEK
T1 sequence (P01116 1-188 isoform P01116-2 G12D): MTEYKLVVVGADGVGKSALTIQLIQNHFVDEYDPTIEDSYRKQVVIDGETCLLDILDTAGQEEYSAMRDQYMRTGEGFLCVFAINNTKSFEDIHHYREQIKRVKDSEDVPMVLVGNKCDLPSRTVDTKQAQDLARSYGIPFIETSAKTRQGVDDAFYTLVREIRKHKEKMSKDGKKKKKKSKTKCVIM
Chain of KRAS G12D (P01116 1-169 isoform P01116-2 G12D): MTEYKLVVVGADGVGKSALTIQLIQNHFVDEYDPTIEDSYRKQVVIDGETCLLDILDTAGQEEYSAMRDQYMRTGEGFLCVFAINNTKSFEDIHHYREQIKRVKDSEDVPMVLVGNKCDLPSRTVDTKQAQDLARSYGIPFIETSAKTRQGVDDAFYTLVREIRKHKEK

C[C@H](NC(=O)[C@@H]1C[C@@H](O)CN1C(=O)[C@@H](NC(=O)CCOCCCN1CCC[C@H]1COc1nc(N2CC3CCC(C2)N3)c2cc(C(F)(F)F)c(-c3ccc(F)c4sc(N)c(C#N)c34)c(F)c2n1)C(C)(C)C)c1ccc(-c2c(F)ccc(F)c2F)cc1 [Example 93, (2S,4R)-1-((2S)-2-(3-(3-((2S)-2-((((7S)-7-(2-amino-3-cyano-7-fluorobenzo [b]thiophen-4-yl)-4-(3,8-diazabicyclo [3.2.1]octan-3-yl)-8-fluoro-6-(trifluoromethyl)quinazolin-2-yl)oxy)methyl)pyrrolidin-1-yl)propoxy)propanamido)-3,3-dimethylbutanoyl)-4-hydroxy-N—((S)-1-(2′,3′,6′-trifluoro-[1,1′-biphenyl]-4-yl)ethyl)pyrrolidine-2-carboxamide]
DC50 [1]: 34 nM
IC50 [2]: 54 nM
IC50 [3]: 9.1 nM

C[C@H](NC(=O)[C@@H]1C[C@@H](O)CN1C(=O)[C@@H](NC(=O)CCOCCCN1CCC[C@H]1COc1nc(N2CC3CCC(C2)N3)c2cc(C(F)(F)F)c(-c3ccc(F)c4sc(N)c(C#N)c34)c(F)c2n1)C(C)(C)C)c1ccc(-c2cccc(F)c2F)cc1 [Example 94, (2S,4R)-1-((2S)-2-(3-(3-((2S)-2-((((7S)-7-(2-amino-3-cyano-7-fluorobenzo [b]thiophen-4-yl)-4-(3,8-diazabicyclo[3.2.1]octan-3-yl)-8-fluoro-6-(trifluoromethyl)quinazolin-2-yl)oxy)methyl)pyrrolidin-1-yl)propoxy)propanamido)-3,3-dimethylbutanoyl)-N—((S)-1-(2′,3′-difluoro-[1,1′-biphenyl]-4-yl)ethyl)-4-hydroxypyrrolidine-2-carboxamide]
DC50 [1]: 38 nM
IC50 [2]: 67 nM
IC50 [3]: 9.2 nM

C[C@H](NC(=O)[C@@H]1C[C@@H](O)CN1C(=O)[C@@H](NC(=O)CCOCCCN1CCC[C@H]1COc1nc(N2CC3CCC(C2)N3)c2cc(C(F)(F)F)c(-c3ccc(F)c4sc(N)c(C#N)c34)c(F)c2n1)C(C)(C)C)c1ccc(-c2ccccc2Cl)cc1 [Example 95, (2S,4R)-1-((2S)-2-(3-(3-((2S)-2-((((7S)-7-(2-amino-3-cyano-7-fluorobenzo [b]thiophen-4-yl)-4-(3,8-diazabicyclo [3.2.1]octan-3-yl)-8-fluoro-6-(trifluoromethyl)quinazolin-2-yl)oxy)methyl)pyrrolidin-1-yl)propoxy)propanamido)-3,3-dimethylbutanoyl)-N—((S)-1-(2′-chloro-[1,1′-biphenyl]-4-yl)ethyl)-4-hydroxypyrrolidine-2-carboxamide]
DC50 [1]: 43 nM
IC50 [2]: 65 nM
IC50 [3]: 8.5 nM

C[C@H](NC(=O)[C@@H]1C[C@@H](O)CN1C(=O)[C@@H](NC(=O)CCOCCCN1CCC[C@H]1COc1nc(N2CC3CCC(C2)N3)c2cc(Cl)c(-c3ccc(F)c4sc(N)c(C#N)c34)c(F)c2n1)C(C)(C)C)c1ccc(-c2ccccc2Cl)cc1 [Example 96, (2S,4R)-1-((2S)-2-(3-(3-((2S)-2-((((7R)-7-(2-amino-3-cyano-7-fluorobenzo[b]thiophen-4-yl)-4-(3,8-diazabicyclo[3.2.1]octan-3-yl)-6-chloro-8-fluoroquinazolin-2-yl)oxy)methyl)pyrrolidin-1-yl)propoxy)propanamido)-3,3-dimethylbutanoyl)-N—((S)-1-(2′-chloro-[1,1′-biphenyl]-4-yl)ethyl)-4-hydroxypyrrolidine-2-carboxamide]
DC50 [1]: 75 nM
IC50 [2]: 156 nM
IC50 [3]: 9.2 nM

C#Cc1c(F)ccc2cc(O)cc(-c3ncc4c(N5CC6CCC(C5)N6)nc(OCCN5CCC6(CC5)CN(c5cc([C@H](C(=O)N7C[C@H](O)C[C@H]7C(=O)N[C@@H](C)c7ccc(-c8cccc(F)c8F)cc7)C(C)C)on5)C6)nc4c3F)c12 [Example 98, (2S,4R)-1-((2R)-2-(3-(7-(2-((4-(3,8-diazabicyclo[3.2.1]octan-3-yl)-7-(8-ethynyl-7-fluoro-3-hydroxynaphthalen-1-yl)-8-fluoropyrido[4,3-d]pyrimidin-2-yl)oxy)ethyl)-2,7-diazaspiro[3.5]nonan-2-yl)isoxazol-5-yl)-3-methylbutanoyl)-N—((S)-1-(2′,3′-difluoro-[1,1′-biphenyl]-4-yl)ethyl)-4-hydroxypyrrolidine-2-carboxamide]
DC50 [1]: 107 nM
IC50 [2]: 1430 nM
IC50 [3]: 16 nM

C#Cc1c(F)ccc2cc(O)cc(-c3ncc4c(N5CC6CCC(C5)N6)nc(OCCN5CCC6(CC5)CN(c5cc([C@H](C(=O)N7C[C@H](O)C[C@H]7C(=O)N[C@@H](C)c7ccc(-c8ccccc8Cl)cc7)C(C)C)on5)C6)nc4c3F)c12 [Example 99, (2S,4R)-1-((2R)-2-(3-(7-(2-((4-(3,8-diazabicyclo[3.2.1]octan-3-yl)-7-(8-ethynyl-7-fluoro-3-hydroxynaphthalen-1-yl)-8-fluoropyrido[4,3-d]pyrimidin-2-yl)oxy)ethyl)-2,7-diazaspiro[3.5]nonan-2-yl)isoxazol-5-yl)-3-methylbutanoyl)-N—((S)-1-(2′-chloro-[1,1′-biphenyl]-4-yl)ethyl)-4-hydroxypyrrolidine-2-carboxamide]
DC50 [1]: 264 nM
IC50 [2]: 1610 nM
IC50 [3]: 16 nM

C#Cc1c(F)ccc2cc(O)cc(-c3ncc4c(N5CC6CCC(C5)N6)nc(OCCN5CCC(Oc6cc([C@H](C(=O)N7C[C@H](O)C[C@H]7C(=O)N[C@@H](C)c7ccc(-c8c(F)cccc8F)cc7)C(C)C)on6)CC5)nc4c3F)c12 [Example 100, (2S,4R)-1-((2R)-2-(3-((1-(2-((4-(3,8-diazabicyclo[3.2.1]octan-3-yl)-7-(8-ethynyl-7-fluoro-3-hydroxynaphthalen-1-yl)-8-fluoropyrido[4,3-d]pyrimidin-2-yl)oxy)ethyl)piperidin-4-yl)oxy)isoxazol-5-yl)-3-methylbutanoyl)-N—((S)-1-(2′,6′-difluoro-[1,1′-biphenyl]-4-yl)ethyl)-4-hydroxypyrrolidine-2-carboxamide]
DC50 [1]: 197 nM
IC50 [2]: 2070 nM
IC50 [3]: 14 nM

C#Cc1c(F)ccc2cc(O)cc(-c3ncc4c(N5CC6CCC(C5)N6)nc(OCCN5CCC6(C5)CN(c5cc([C@H](C(=O)N7C[C@H](O)C[C@H]7C(=O)N[C@@H](C)c7ccc(-c8c(F)cccc8F)cc7)C(C)C)on5)C6)nc4c3F)c12 [Example 101, (2S,4R)-1-((2R)-2-(3-(6-(2-((4-(3,8-diazabicyclo[3.2.1]octan-3-yl)-7-(8-ethynyl-7-fluoro-3-hydroxynaphthalen-1-yl)-8-fluoropyrido[4,3-d]pyrimidin-2-yl)oxy)ethyl)-2,6-diazaspiro[3.4]octan-2-yl)isoxazol-5-yl)-3-methylbutanoyl)-N—((S)-1-(2′,6′-difluoro-[1,1′-biphenyl]-4-yl)ethyl)-4-hydroxypyrrolidine-2-carboxamide]
DC50 [1]: 707 nM
IC50 [2]: 1790 nM
IC50 [3]: 13 nM

— US20240293558A1, “KRAS INHIBITOR CONJUGATES” (Erasca, Inc., priority 2021, published 2024)
